Experiments:
[1] = test system: human myeloid leukocyte c-jun cDNA; experiment: PCR amplification of c-jun with lower denaturation/extension temperatures; type: biochemical; conditions: for Potency: annealing 50° C.
Protocol: (§1) Amplification reactions were carried out under the following general conditions. Those skilled in the art will appreciate, however, that to the extent that the conditions (set forth in this application) required for specific experiments described in this example were inconsistent with the following general conditions, limited exceptions to the following general conditions were made The general conditions were as follows: 10 Mm Tris-HCl (Ph 8.8), 50 Mm KCl, 1.5 Mm MgCl2, 0.01% (w/v) gelatin, 0.2 Um primers, 0.06 ng/ul template, 0.2 Mm each Dntp, 0.04 U/ul Taq polymerase. The templates used were bovine brain N-WASP cDNA (1518 bp), a 996 by segment of human myeloid leukocyte c-jun cDNA, a 511 by segment of human prostate-specific membrane antigen (PSM) cDNA, and bovine brain glycolipid transfer protein (GTP) cDNA (660 bp). cDNA synthesis was carried out using the FIRST-STRAND® RT-PCR kit from Stratagene on the respective mRNAs purchased from Clontech. All amplification reactions for gene were carried out using a single master batch of cDNA. Taq polymerase and dNTPs were obtained from Stratagene. Primers were obtained from Genosys. Primer melting temperatures (Tms) were calculated using the Genosys oligo calculator program. The sequences of the primers were as follows.
(§2) Polymerase chain reactions for the N-WASP gene were conducted on a ROBOCYCLER® Gradient 40 thermal cycler from Stratagene using 100 ul solutions in 600 ul thin-walled tubes. For expediency, amplification of c-jun, PSM and GTP was carried out in a ROBOCYCLER® Gradient 96 thermal cycler from Stratagene using 50 ul solutions in 200 ul thin-walled tubes. Prior to Taq polymerase addition, a hotstart protocol was carried out that consisted of an initial cycle of 95° C. for 5 minutes (11) to ensure complete first-strand separation, followed by a cycle of 54° C. for 5 minutes. Amplifications were run for 30 cycles. Denaturation was done for 1 minute at the minimum temperatures that yielded discernable amplification: 92° C. for N-WASP and 95° C. for c-jun, PSM and GTP. Extension was done at 72° C. for periods depending on target length: 2 minutes for N-WASP, 1.5 minutes for c-jun and GTP, and 1 minute for PSM. Annealings were carried out either at fixed concentrations of additives using temperature gradients of 38-56° C. for N-WASP and 44-58° C. for the other targets, or at varying concentrations of additives using fixed temperatures of 41° C. for N-WASP, 50° C. for c-jun and PSM, and 54° C. for GTP.
Amplification products were analyzed by agarose gel electrophoresis on 0.8% agarose gels in which 20 ul reaction products were loaded with 4 ul loading buffer. […] Densitometric quantitation of amplification products was carried out using IMAGE SCANNER® and IMAGE MASTER® software from Amersham Pharmacia. […]

[2] = test system: bovine brain glycolipid transfer protein (GTP) cDNA (660 bp); experiment: Pilot low temperature PCR of GTP with 1,5-pentanediol; type: biochemical; conditions: normalized: 1,5-pentanediol (95/72° C.) = 1
Protocol: as §1, §2
Amplification products were analyzed by agarose gel electrophoresis on 0.8% agarose gels in which 20 ul reaction products were loaded with 4 ul loading buffer. Gels were stained with ethidium bromide, visualized on a UV transilluminator (Fisher), and documented by photography. Densitometric quantitation of amplification products was carried out using IMAGE SCANNER® and IMAGE MASTER® software from Amersham Pharmacia. Background correction was done using the software's rolling disc method. […] GTP was used as the target because it has the lowest GC content of the three templates used. PCR reactions were carried out in the presence of 1.0 and 1.5M 1,5-pentanediol under the conditions of 85° C. denaturing and 53° C. extension, using a 50° C. annealing temperature. In addition, 1.5M and 2.0M 1,5-pentandediol were tested using an 80° C. denaturing temperature, with identical annealing and extension temperature. Finally, 2.0, 2.5, and 3.0M 1,5-pentanediol were tested in GTP amplification employing a 75° C. denaturation temperature.

[3] = test system: 50% GC DNA; experiment: Predicted cosolvent-induced Tm depression of DNA; type: physicochemical; conditions: 1.0M 1,5-pentanediol, 0.7M 1,6-hexanediol, linearity not verified
Protocol: The compounds utilized in the first phase (testing using 1.0M 1,5-pentanediol and 0.7M 1,6-hexanediol at temperatures between 46 and 62° C.) were chosen on the basis of the following rationale. The optimal additive for a low temperature PCR reaction is one that lowers the melting temperature of DNA as much as possible while minimally compromising polymerase activity. 1,5-Pentanediol and 1,6-hexanediol are both powerful DNA melting agents. In addition, it was found in the 62° C. activity studies that the rate of activity decline with concentration of 1,5-pentanediol was roughly equivalent to that of 1,2-butanediol, despite the fact that the former is a much stronger DNA denaturant. 1.0M 1,5-pentanediol and 0.7M 1,6-hexanediol are predicted to lower the Tm of a 50% GC DNA by approximately the same amount: 19° C.

| Compound | Potency ([1]; 92/62° C. denaturation/extension, normalized: 1,5-pentanediol (95/72° C.) = 1) | Potency ([1]; 92/62° C. denaturation/extension, normalized: 1,5-pentanediol (95/72° C.) = 1, listed as 1,2-butanediol) | Effective ([1]; 92/62° C., concentration interval over which target band minus control is at least 50% of maximum volume) | Potency ([1]; 92/72° C. denaturation/extension, normalized: 1,5-pentanediol (95/72° C.) = 1) | GTP Potency ([2]; 75/50/53° C., 2.0 M 1,5-pentanediol) | GTP Potency ([2]; 75/50/53° C., 2.0 M 1,5-pentanediol, listed as 1,5-pentanediol) | GTP Potency ([2]; 75/50/53° C., 2.5 M 1,5-pentanediol) | GTP Potency ([2]; 75/50/53° C., 2.5 M 1,5-pentanediol, listed as 1,5-pentanediol) | GTP Potency ([2]; 75/50/53° C., 3.0 M 1,5-pentanediol) | GTP Potency ([2]; 75/50/53° C., 3.0 M 1,5-pentanediol, listed as 1,5-pentanediol) | GTP Potency ([2]; 80/50/53° C., 1.5 M 1,5-pentanediol) | GTP Potency ([2]; 80/50/53° C., 1.5 M 1,5-pentanediol, listed as 1,5-pentandediol) | GTP Potency ([2]; 80/50/53° C., 2.0 M 1,5-pentanediol) | GTP Potency ([2]; 80/50/53° C., 2.0 M 1,5-pentanediol, listed as 1,5-pentandediol) | GTP Potency ([2]; 85/50/53° C. denaturation/annealing/extension, 1.0 M 1,5-pentanediol) | GTP Potency ([2]; 85/50/53° C. denaturation/annealing/extension, 1.0 M 1,5-pentanediol, listed as 1,5-pentanediol) | GTP Potency ([2]; 85/50/53° C., 1.5 M 1,5-pentanediol) | GTP Potency ([2]; 85/50/53° C., 1.5 M 1,5-pentanediol, listed as 1,5-pentanediol) | lowering of the Tm of a 50% GC DNA [3] |
| --- | --- | --- | --- | --- | --- | --- | --- | --- | --- | --- | --- | --- | --- | --- | --- | --- | --- | --- | --- |
| CCC(O)CO (stereo not shown) [1,2-Butanediol] | 0.91 | High product yield | 0.72-1.02 | 0.00 | – | – | – | – | – | – | – | – | – | – | – | – | – | – | – |
| OCCCCCO [1,5-Pentanediol] | – | – | – | – | 0.00 | unsuccessful | 0.00 | unsuccessful | 0.53 | succeeded in producing amplification | 0.00 | failed to produce any discernable amplification | 2.69 | high yield | 2.78 | strong amplification | 2.64 | strong amplification | ~19 °C |

From patent publication US7772383B2, “Chemical PCR: Compositions for enhancing polynucleotide amplification reactions” (The Trustees of Princeton University, priority 2002, dated 2010)
